Results as given in patent publication US20100069393A1, “METHOD OF TREATMENT AND AGENTS USEFUL FOR SAME” (PRANA BIOTECHNOLOGY LIMITED, priority 2006, published 2010).

How the values were obtained:
[1] = Neurotoxicity assay: MTS viability of primary cortical neuronal cultures; type: cell-based, mouse; details: BL6Jx129sv, mouse, primary cortical neuronal cultures, Neuronal cells, read-out: Cytotoxicity (% viable at 1 and 10 uM); for viability at 4 days, 1 uM: test compound 1 uM; for viability at 4 days, 10 uM: test compound 10 uM
[2] = Mice plasma concentration; type: in vivo; details: for Mice plasma concentration (single dose): one or two time points (between 30 min and 4 h); for Mice plasma concentration: presence in plasma at one or two time points (between 30 min and 4 h)
[3] = Cytotoxicity: viability of M17 cells; details: human, M17 neuroblastoma cells, Cytotoxicity (% viable at 1 and 10 uM); for viability at 1 uM: test compound 1 uM; for viability at 10 uM: test compound 10 uM
[4] = In vivo toxicity, visual observations; details: 30 mg/kg, number of days

Row | Compound | viability at 4 days, 1 uM [1] [%] | viability at 4 days, 10 uM [1] [%] | Mice plasma concentration (single dose) [2] | viability at 1 uM [3] [%] | viability at 10 uM [3] [%] | Toxicity at 30 mg/kg [4] | Mice plasma concentration [2]
1 | O=c1c2c(Cl)cc(Cl)c(O)c2ncn1-c1ccccn1 [drawing 171] | 95 | 81 | Up to 142.9 ng/mL (single dose) | 101 | 80.5 | 10 days, none | –
2 | CCCn1cnc2c(O)c(I)ccc2c1=S | – | – | – | 89.9 | 86.2 | 10 days, none | Up to 1593 ng/ml ng/mL
3 | O=c1c2c(Cl)cc(Cl)c(O)c2ncn1Cc1cn2ccccc2n1 | – | – | – | 109 | 98.2 | 10 days, none | Up to 98.3 ng/mL
4 | O=c1c2c(Cl)cc(Cl)c(O)c2ncn1Cc1cccnc1 | – | – | – | 106 | 95.4 | 10 days, none | Up to 4023.4 ng/mL
5 | OCCN1C=Nc2c(O)c(Cl)cc(Cl)c2C1 | 107 | 96 | – | 115 | 119 | 10 days, none | Up to 8134.8 ng/mL
6 | O=c1c2ccc(I)c(O)c2ncn1Cc1ccccn1 | – | – | – | 93.8 | 84.5 | 10 days, none | Up to 1538 ng/mL
7 | O=C(O)CCCn1cnc2c(O)c(Cl)cc(Cl)c2c1=O | – | – | – | 110 | 103 | 10 days, none | Up to 17008 ng/mL
8 | O=c1c2cccc(O)c2ncn1-c1ccc(Cl)cn1 | – | – | – | 107 | 122 | 10 days, none | Up to 6 ng/mL
9 | Br.CN1CCCC1Cn1cnc2c(O)c(Cl)cc(Cl)c2c1=O (stereo not shown) | – | – | – | 107 | 93.9 | 10 days, none | Up to 382.5 ng/mL
10 | Br.CCC(C)n1cnc2c(O)c(Cl)cc(Cl)c2c1=O (stereo not shown) [drawing 185] | 104 | 71 | – | 94.3 | 74.5 | 10 days, none | Up to 383 ng/mL
11 | CCn1cnc2c(O)c(I)ccc2c1=S | – | – | – | 85.7 | 43 | 10 days, none, 1/4 mild signs | Up to 400 ng/ml ng/mL
12 | Br.CCN(CC)CCn1cnc2c(O)c(Cl)cc(Cl)c2c1=O | 107 | 77 | Up to 113.2 ng/mL (single dose) | 100 | 70.3 | 10 days, none | –
13 | O=c1c2c(Cl)cc(Cl)c(O)c2ncn1Cc1ccncc1 | – | – | – | 105 | 90.4 | 10 days, none | Up to 2181.1 ng/mL
14 | Br.CCCn1cnc2c(O)c(Cl)cc(Cl)c2c1=O | 102 | 83 | – | 107 | 98.8 | 10 days, none | Up to 2641 ng/mL
15 | Br.CNCc1nc2c(O)c(Cl)cc(Cl)c2c(=O)n1C | – | – | – | 96 | 90.6 | 10 days, none | Up to 510.4 ng/mL
16 | O=c1c2c(Cl)cc(Cl)c(O)c2ncn1Cc1nccs1 | – | – | – | 96 | 99.8 | 10 days, none | Up to 441.4 ng/mL

Row | Compound | viability at 4 days, 1 uM [1] [%] | viability at 4 days, 10 uM [1] [%] | Mice plasma concentration (single dose) [2] | viability at 1 uM [3] [%] | viability at 10 uM [3] [%] | Toxicity at 30 mg/kg [4] | Mice plasma concentration [2]
17 | CCn1c(CN(C)C)nc2c(O)c(Cl)cc(Cl)c2c1=O.Cl | – | – | – | 99.2 | 102 | 10 days, none | Up to 975.9 ng/mL
18 | Cn1c(-n2cnc3c(O)c(Cl)cc(Cl)c3c2=O)nc2ccccc21 | 105 | 97 | – | 107 | 94.9 | 10 days, none | Up to 112.4 ng/mL
19 | O=c1c2c(Cl)cc(Cl)c(O)c2ncn1CCN1CCCC1 | 104 | 91 | Up to 520 ng/mL (single dose) | 104 | 101 | 14 days, 1 of 4 death | –
20 | O=c1c2c(Cl)cc(Cl)c(O)c2ncn1Nc1ccc(F)cc1F | 100 | 92 | – | 105 | 83.1 | 10 days, none | Up to 1,130.6 ng/mL
21 | CC(C)Cn1cnc2c(O)c(Cl)cc(Cl)c2c1=O | 99 | 70 | – | 102 | 75.6 | 10 days, none | Up to 1802 ng/mL
22 | CC(C)c1cnc2c(O)cccn2c1=O | – | – | – | 99.7 | 45.6 | 10 days, none | Up to 409 ng/ml ng/mL
23 | CCn1cnc2c(O)c(I)cc(Cl)c2c1=O | – | – | – | 101 | 50.4 | 10 days, 2/4 deaths | Up to 1802 ng/mL
24 | Cn1ccnc1Cn1cnc2c(O)c(Cl)cc(Cl)c2c1=O | – | – | – | 108 | 97.6 | 10 days, none | Up to 13214.8 ng/mL
25 | CCNCc1ccc2c(Cl)cc(Cl)c(O)c2n1.Cl | 87 | 56 | – | 78.3 | 44 | 10 days, none | Up to 403 ng/mL
26 | CN(C)Cc1nc2c(O)c(Cl)cc(Cl)c2c(=O)n1CC1CC1.Cl | – | – | – | 94.4 | 74.5 | 10 days, none | Up to 1166.6 ng/mL
27 | O=c1c2c(Cl)cc(Cl)c(O)c2ncn1-c1ccc2[nH]ncc2c1 | – | – | – | 96.2 | 88.9 | 10 days, none | Up to 126 ng/mL
28 | Cc1noc(C)c1-n1cnc2c(O)c(Cl)cc(Cl)c2c1=O | – | – | – | 106 | 94.2 | 10 days, none | Up to 7107 ng/mL
29 | O=c1c2c(Cl)cc(Cl)c(O)c2ncn1Cc1nc2ccccc2s1 | – | – | – | 111 | 80.9 | 10 days, none | Up to 166.1 ng/mL
30 | Br.CN(C)Cc1nc2c(O)c(Cl)cc(Cl)c2c(=O)n1C | – | – | – | 104 | 111 | 10 days, 1 of 4 mild signs | Up to 492.1 ng/mL
31 | O=c1c2c(Cl)cc(Cl)c(O)c2ncn1Cc1nc2ccccc2[nH]1 | – | – | – | 102 | 100 | 10 days, none | Up to 2796 ng/mL
32 | Br.CN(C)Cc1nc2c(O)c(Cl)cc(Cl)c2c(=O)[nH]1 | – | – | – | 97.4 | 100 | 10 days, none | Up to 642.6 ng/mL
